Data published in patent US20110262502A1, “PULMONARY DELIVERY OF 17-HYDROXYPROGESTERONE CAPROATE (17-HPC)” (Prairie Pharmaceuticals LLC, priority 2010, published 2011).
Where two headings read alike, the source gives them in different places.

Tests used:
[1] = API particle size distribution (Dv(10), Dv(50), Dv(90), Span); format: physicochemical
Source text: In determining and characterizing particle size, e.g., particle size of an API (active pharmaceutical ingredient), the particle size parameters Dv(10), Dv(50) and Dv(90) may be used. Particle size measurements are preferably expressed in terms of Dv(10), Dv(50), and Dv(90), wherein Dv(10) refers to the particle size below which 10% of the volume of material exists; Dv(50) refers to the particle size below which 50% of the volume of material exists; and Dv(90) refers to the particle size below which 90% of the volume of material exists.
Referring to Table 5, experiments were performed with a suspension comprising the active pharmaceutical ingredient (the API), i.e., 17-HPC was the API in these experiments, wherein 17-HPC was present at approximately five percent (5%) w/w in water; and the suspension also comprised the surfactant Tween 80 at approximately 15% in these experiments (processing conditions conducted at Pressure=90 bar). […] Particle size measurements are expressed in terms of Dv(10), Dv(50), and Dv(90), wherein Dv(10) refers to the particle size below which 10% of the volume of material exists; Dv(50) refers to the particle size below which 50% of the volume of material exists; and Dv(90) refers to the particle size below which 90% of the volume of material exists). […]
Exemplary particle size reduction experiments, and characterization of API (i.e., 17-HPC) particle size distribution, using a suspension prepared without a surfactant. Referring to Table 7, particle size reduction of 17-HPC was observed without using any surfactant. Experiments were performed with a suspension comprising the active pharmaceutical ingredient (the API), i.e., 17-HPC in these experiments, in water and without a surfactant. FIG. 16 depicts an exemplary API particle size distribution profile (17-HPC is the active ingredient) after a spray-drying (SD) process. Referring again to FIG. 16, and also to Table 7, an exemplary 17-HPC particle size distribution profile was obtained after approximately 10 to 55 cycles of milling. API particle size was measured after spray drying (SD). Particle size measurements are expressed in terms of Dv(10), Dv(50), and Dv(90), wherein Dv(10) refers to the particle size below which 10% of the volume of material exists; Dv(50) refers to the particle size below which 50% of the volume of material exists; and Dv(90) refers to the particle size below which 90% of the volume of material exists).

[2] = Dynamic vapor sorption (DVS) of 17-HPC powder; format: physicochemical; conditions: FIG. 18; increasing percent relative humidity
Method: Dynamic vapor sorption (DVS) is a gravimetric technique that measures how quickly and how much of a solvent is absorbed by a sample, such as a dry powder absorbing water. DVS accomplishes this by varying the vapor concentration surrounding the sample and measuring the change in mass which this produces.
Analysis of 17-HPC dry powder (obtained after particle size reduction and spray drying or SD) was performed. FIG. 18 depicts exemplary results from a dynamic vapor sorption (DVS) analysis of a dry powder obtained after a spray-drying (SD) process. One particular batch (PGC2011-020PD) was selected to be analyzed by DVS. […] There was no substantive change in adsorption or desorption even with conditions of increasing percent relative humidity. Referring to FIG. 19, exemplary results are shown of XRPD analysis of a 17-HPC dry powder obtained after particle size reduction and a spray-drying (SD) process. One particular batch (PGC2011-020PD) was selected to be analyzed by XRPD.

[3] = tested on: PHA-induced IL-2 production in PBMCs; assay: PHA-induced IL-2 production in PBMCs from healthy male smokers (no IL-2/IL-4 added), ELISA; format: cell-based, human; conditions: for levels of IL-2 in PBMCs: FIG. 1, PHA; for % inhibition of PHA stimulation of IL-2: Table 2
Method: PBMCs were isolated from human blood buffy coats provided by a regional blood center. Random buffy coat cells from male donors were a by-product of blood processed for clinical use and no details (i.e., personal identification and background) were provided except for tobacco use. […] PBMCs were separated using a porous high density polyethylene barrier (HISTOPAQUE from GEHealthcare Bio-Sciences AB (US). After centrifugation of blood samples in each tube (35 minutes at 800×g at room temperature, or RT), PBMCs were collected and washed twice with Hank's buffered saline solution (HBSS). PBMCs were resuspended in RPMI-1640 medium containing 10% fetal calf serum (FCS) and 15 mM glutamine and cells were counted and plated.
(§1) PBMCs (2×10^6) were incubated with or without IL-2 (13 ng/ml) and IL-4 (6.5 ng/ml) for 48 hours in RPMI-1640 medium containing 10% FCS and 2 mM glutamine. […] IL-2 and IL-4 stimulated PBMCs were also plated at a concentration of 10^6 cells/ml in 96-well plates ready for PHA (15 μg/mL, 24 hours) stimulation of cytokine release and detection by ELISA.
Serial dilutions of standards and PBMCs' supernatants were measured by enzyme linked immunosorbent assay to determine IL-2 at baseline and its levels after 17HPC, P4 and MAP treatments. Optical density was measured at 450 nm and corrected with 550 nm. The concentration of TL-2 was calculated using the standard curve and taking into account the supernatant dilution used. Detection limit for IL-2 is 4.0 pg/ml.
Data are expressed as mean±SD. The efficacies of the drug treatments were analyzed by paired t-test. One-way analysis of variance was used to compare three or more matched groups and 95% CI was performed to present groups differences. All graphs indicate mean values of results or % inhibition of PHA-stimulated IL-2. IC50 values were calculated by using a sigmoidal model (BioDataFit). A p value <0.05 was considered statistically significant.
(§2) IL-2 levels were quantified using ELISA.
IL-2 levels were quantified using ELISA. IC50 values were calculated by using a sigmoidal model (BioDataFit).
as §2, §2, §2

[4] = tested on: PHA-induced IL-2 release in IL-2 and IL-4 treated (steroid resistant) PBMCs; assay: IL-2/IL-4 induced steroid resistance model in PBMCs: dexamethasone inhibition of PHA-induced IL-2 release; format: cell-based, human
Method: J Immunol 2009; 183; 164-171). […] Following PBMCs stimulation with mitogen phytohaemagglutinin (PHA), there is a strong correlation between cytokine secretion levels and steroid resistance as well as steroid sensitivity in vitro. Addition of IL-2, IL-4 and TNF-reduce steroid sensitivity.
as §1
IL-2/4 induced steroid resistance in PBMCs, a well-recognized study model, was used to evaluate potential modifiers of steroid resistance and sensitivity. PBMCs from healthy smokers were collected. Corticosteroid insensitivity or resistance was induced by adding IL-2 and IL-4 in peripheral blood mononuclear cells (PBMCs) from healthy male smokers (n=˜11). […] IL-2 levels were quantified using ELISA.
J Immunol 2009; 183; 164-171).
as §2

[5] = Table 7, powders after spray drying, bulk material for comparison
[6] = Example 8, Dexamethasone only 10E−6M
[7] = Example 8, Dexamethasone only 10E−8M
[8] = Example 8, Dexamethasone only 10E−11M
[9] = Homo sapiens, PBMC, read-out: % inhibition on PHA-induced IL-2 production

CCCCCC(=O)O[C@]1(C(C)=O)CC[C@H]2[C@@H]3CCC4=CC(=O)CC[C@]4(C)[C@H]3CC[C@@]21C [Bulk material]
Particle Size Dv(10) ([1]; Table 5, bulk material): 6.345 μm | Particle Size Dv(50) ([1]; Table 5, bulk material): 56.762 μm | Particle Size Dv(90) ([1]; Table 5, bulk material): 307.607 μm | Particle Size Span ([1]; Table 5, bulk material): 5.307 | API particle size after SD (powders) Dv(10) [1, 5]: 2.398 μm | API particle size after SD (powders) Dv(50) [1, 5]: 23.610 μm | API particle size after SD (powders) Dv(90) [1, 5]: 98.799 μm | API particle size after SD (powders) Span [1, 5]: 4.083 | water uptake in DVS (percent change in weight vs RH %) [2]: neither the obtained powders nor the bulk material gained any measurable quantity of water

C[C@@H]1C[C@H]2[C@@H]3CCC4=CC(=O)C=C[C@]4(C)[C@@]3(F)[C@@H](O)C[C@]2(C)[C@@]1(O)C(=O)CO [Dexamethasone]
% inhibition of PHA-induced IL-2 production [3, 6]: (86%) | mean IL-2 [3, 6]: 109.6 pg/mL | % inhibition of PHA-induced IL-2 production [3, 7]: 67% | mean IL-2 [3, 7]: 251.6 pg/mL | % inhibition of PHA-induced IL-2 production [3, 8]: (72%) | mean IL-2 [3, 8]: 216.1 pg/mL | levels of IL-2 in PBMCs ([3]; dex 10^−8M, n=17, mean±SD): 293 ± 338 pg/mL | levels of IL-2 in PBMCs ([3]; dexamethasone 10^−6M, n=17, mean±SD): 144 ± 157 pg/mL | levels of IL-2 in PBMCs ([3]; dexamethasone 10^−10 M, n=14, mean±SD): 287 ± 313 pg/mL | levels of IL-2 in PBMCs ([3]; dexamethasone 10^−12 M, n=11, mean±SD): 371 ± 447 pg/mL | inhibition at 1 µM ([3]; Homo sapiens, PBMC): 87% | IC50 ([3]; Homo sapiens, PBMC, Dexamethasone+17HPC at lower 17HPC concentrations, read-out: Dexamethasone-IC50): 0.001 to 0.0631 nM | IC50 ([3]; Homo sapiens, PBMC, read-out: Dexamethasone IC50, Dexamethasone only, sigmoidal model, N=14): 31.6 nM | IC50 ([3]; Homo sapiens, PBMC, read-out: Dexamethasone IC50, with 17HPC 10^−5M add-on): 25.4 nM | IC50 ([3]; Homo sapiens, PBMC, read-out: Dexamethasone IC50, with 17HPC 10^−10M add-on): 0.0627 nM | inhibition at 0.0001 µM [3, 9]: 52% | mean IL-2 ([3]; Table 1, Dexamethasone only 10^−6M): 160.6 pg/mL | mean IL-2 ([3]; Table 1, Dexamethasone only 10^−8M): 398.1 pg/mL | mean IL-2 ([3]; Table 1, Dexamethasone only 10^−10M): 312.7 pg/mL | mean IL-2 ([3]; Table 1, Dexamethasone only 10^−12M): 371.7 pg/mL | % inhibition of PHA stimulation of IL-2 ([3]; Dexamethasone only 10^−6 M (Imax)): 78% | % inhibition of PHA stimulation of IL-2 ([3]; Dexamethasone only 10^−8 M): 46% | % inhibition of PHA stimulation of IL-2 ([3]; Dexamethasone only 10^−10 M): 57% | % inhibition of PHA stimulation of IL-2 ([3]; Dexamethasone only 10^−12 M): 49% | effect in basal IL-2 level ([3]; no PHA stimulation, data not shown): no significant effect | % inhibition on PHA-induced IL-2 production ([4]; FIG. 2, Dexamethasone 10^−10 M, with addition of IL-2 and IL-4): no inhibition | PHA-induced IL-2 level ([4]; FIG. 5, Dexamethasone 10^−10 M without 17HPC): 2364 pg/mL | inhibition at 1 µM [4, 9]: 21%
